Data taken from ChEMBL document CHEMBL4602730, “In Vitro and in Vivo Evaluation of Membrane-Active Flavone Amphiphiles: Semisynthetic Kaempferol-Derived Antimicrobials against Drug-Resistant Gram-Positive Bacteria” (J Med Chem, 2020).
In brackets after ≈: the same amount, converted by molar mass.

Experiments:
Staphylococcus aureus [1] = experiment: Antibacterial activity against methicillin-resistant Staphylococcus aureus NCTC 10442 assessed as inhibition of bacterial growth incubated for 24 hrs by broth microdilution method; type: functional; details: NCTC 10442, 24 h
[2] = Induction of hemolysis in rabbit RBC incubated for 1 hr; type: cell-based, Oryctolagus cuniculus, Erythrocyte; details: rabbit red blood cells (erythrocytes)
Staphylococcus aureus [3] = experiment: Antibacterial activity against methicillin-resistant Staphylococcus aureus N315 assessed as inhibition of bacterial growth incubated for 24 hrs by broth microdilution method; type: functional; details: N315, 24 h
Staphylococcus aureus [4] = experiment: Antibacterial activity against Staphylococcus aureus ATCC 29213 assessed as inhibition of bacterial growth incubated for 24 hrs by broth microdilution method; type: functional; details: ATCC 29213, 24 h

Structure (SMILES)	MIC (Staphylococcus aureus [1])	HC50 at 1 h [2]	MIC (Staphylococcus aureus [3])	MIC (Staphylococcus aureus [4])
CCCCCCCOc1ccc(-c2oc3cc(OCCCCCCC)cc(O)c3c(=O)c2OCCCN(CC)CC)cc1	> 83.9 µM	> 336 µM	> 83.9 µM	> 83.9 µM
CCN(CC)CCCCCCOc1c(-c2ccc(OCC=C(C)C)cc2)oc2cc(OCC=C(C)C)cc(O)c2c1=O	10.8 µM (≈ 6.24 µg/mL)	83.8 µM	10.8 µM (≈ 6.24 µg/mL)	10.8 µM (≈ 6.24 µg/mL)
CC[N+](C)(CC)CCCOc1c(-c2ccc(OCC=C(C)C)cc2)oc2cc(OCC=C(C)C)cc(O)c2c1=O	4.6 µM	88.2 µM	2.3 µM	4.6 µM
CCN(CC)CCCCCCCCOc1c(-c2ccc(OCC=C(C)C)cc2)oc2cc(OCC=C(C)C)cc(O)c2c1=O	82.5 µM (≈ 50 µg/mL)	29.4 µM	20.6 µM (≈ 12.5 µg/mL)	82.5 µM (≈ 50 µg/mL)
CCCNCCCOc1c(-c2ccc(OCC=C(C)C)cc2)oc2cc(OCC=C(C)C)cc(O)c2c1=O	12 µM (≈ 6.26 µg/mL)	49.8 µM	6 µM (≈ 3.13 µg/mL)	24 µM (≈ 12.5 µg/mL)
CCCOc1ccc(-c2oc3cc(OCCC)cc(O)c3c(=O)c2O)cc1	> 135 µM	> 540 µM	> 135 µM	> 135 µM
CCCCCCCCCOc1ccc(-c2oc3cc(OCCCCCCCCC)cc(O)c3c(=O)c2OCCCN(CC)CC)cc1	> 76.7 µM	> 307 µM	> 76.7 µM	> 76.7 µM
CC(C)=CCOc1ccc(-c2oc3cc(OCC=C(C)C)cc(O)c3c(=O)c2OCCCN2CCCC2)cc1	23.4 µM (≈ 12.5 µg/mL)	> 375 µM	11.7 µM (≈ 6.24 µg/mL)	23.4 µM (≈ 12.5 µg/mL)
CCN(CC)CCCOc1c(-c2ccc(OCC=C(C)C)cc2)oc2cc(OCC=C(C)C)cc(O)c2c1=O	5.8 µM (≈ 3.11 µg/mL)	59.9 µM	5.8 µM (≈ 3.11 µg/mL)	5.8 µM (≈ 3.11 µg/mL)
CCN(CC)CCCNC(=O)COc1c(-c2ccc(OCC=C(C)C)cc2)oc2cc(OCC=C(C)C)cc(O)c2c1=O	21.1 µM (≈ 12.5 µg/mL)	80.3 µM	10.5 µM (≈ 6.22 µg/mL)	10.5 µM (≈ 6.22 µg/mL)
CC(C)=CCOc1ccc(-c2oc3cc(OCC=C(C)C)cc(O)c3c(=O)c2OCCCN2CCOCC2)cc1	> 91 µM	> 364 µM	> 91 µM	> 91 µM
COC(=O)[C@H](Cc1c[nH]cn1)NC(=O)COc1c(-c2ccc(OCC=C(C)C)cc2)oc2cc(OCC=C(C)C)cc(O)c2c1=O	> 79.2 µM	> 317 µM	> 79.2 µM	> 79.2 µM
CCCOc1ccc(-c2oc3cc(OCCC)cc(O)c3c(=O)c2OCCCN(CC)CC)cc1	12.9 µM (≈ 6.24 µg/mL)	121 µM	12.9 µM (≈ 6.24 µg/mL)	12.9 µM (≈ 6.24 µg/mL)
CCN(CC)CCCCOc1c(-c2ccc(OCC=C(C)C)cc2)oc2cc(OCC=C(C)C)cc(O)c2c1=O	5.7 µM (≈ 3.13 µg/mL)	32.2 µM	5.7 µM (≈ 3.13 µg/mL)	5.7 µM (≈ 3.13 µg/mL)
CC(C)=CCOc1ccc(-c2oc3cc(OCC=C(C)C)cc(O)c3c(=O)c2OCC(=O)N[C@@H](CCCNC(=N)N)C(=O)NCCCN(C)C)cc1	8.7 µM (≈ 6.27 µg/mL)	131 µM	8.7 µM (≈ 6.27 µg/mL)	8.7 µM (≈ 6.27 µg/mL)
CCN(CC)CCCCCCCCCCOc1c(-c2ccc(OCC=C(C)C)cc2)oc2cc(OCC=C(C)C)cc(O)c2c1=O	> 78.9 µM	> 316 µM	> 78.9 µM	> 78.9 µM
CCCCCCCCNCCCOc1c(-c2ccc(OCC=C(C)C)cc2)oc2cc(OCC=C(C)C)cc(O)c2c1=O	> 84.5 µM	> 338 µM	21.1 µM (≈ 12.5 µg/mL)	> 84.5 µM
CC(C)=CCOc1ccc(-c2oc3cc(OCC=C(C)C)cc(O)c3c(=O)c2OCC(=O)NCCCN(C)C)cc1	22.1 µM (≈ 12.5 µg/mL)	287 µM	11.1 µM (≈ 6.27 µg/mL)	11.1 µM (≈ 6.27 µg/mL)
O=c1c(O)c(-c2ccc(O)cc2)oc2cc(O)cc(O)c12 [KAEMPFEROL]	> 175 µM		> 175 µM	> 175 µM
